# Test results published in patent US20220071996A1, “ORAL FORMULATIONS OF BRANAPLAM” (NOVARTIS AG, priority 2018, published 2022).
# Columns and labels:
# [1] = test system: infants with Type I Spinal Muscular Atrophy; assay: open-label first-in-human proof of concept study of oral branaplam; format: in vivo
# Experimental: Clinical Trial: An Open-Label Multi-Part First-In-Human Proof of Concept Study of Oral Branaplam in Infants with Type I Spinal Muscular Atrophy. • Part 1: The aim of part one of this study was to determine the safety and tolerability of ascending weekly doses and to estimate the maximum tolerated dose (MTD) of oral/enteral branaplam in infants with Type 1 SMA. All patients had exactly 2 copies of the SMN2 gene. • In part one of the study, patients were dosed once weekly with branaplam. The branaplam doses were escalated in subsequent cohorts until MTD was determined or when PK results confirmed that the MTD could not be reached due to a potential pharmacokinetic exposure plateau at higher doses. A decision to dose escalate the next cohort was made after safety data had been collected for 14 days following the first dose. Patients completing 13 weeks of treatment were considered to have completed the study. The starting dose was 6 mg/m^2 (approximately 0.3125 mg/kg). Subsequent doses were 12 mg/m^2, 24 mg/m^2, 48 mg/m^2 and 60 mg/m^2 (approximately 0.625 mg/kg, 1.25 mg/kg, 2.5 mg/kg and 3.125 mg/kg, respectively). Each cohort had 2-3 patients. All doses are of branaplam in free form. 14 patients were enrolled in Part 1; 13 patients were exposed to branaplam. The duration of exposure ranged from 4-33 months, 7 patients remain in the study. Six of the 7 patients are receiving 60 mg/m^2, 1 patient is receiving 48 mg/m^2.
# Preliminary Safety Results • AEs/SAEs: 455 AEs were reported in the 13 patients; the vast majority were attributed to the underlying disease. Seventy-nine SAEs occurred associated with 59 hospitalizations of which 39 of the 59 hospitalizations were for respiratory events or infections. • Deaths: A total of five patients have died, all from ventilatory failure due to their underlying disease.
# Part 2 of the study will enroll patients into 2 cohorts: cohort 1 at a 0.625 mg/kg dose and cohort 2 at a 2.5 mg/kg dose. The selected dose levels of 0.625 mg/kg and 2.5 mg/kg are based on all safety data from Part 1, as well as, all data from chronic juvenile toxicity studies available at the time of initiation of Part 2. Six to 10 patients will be enrolled in cohorts 1 and 2. A total of a minimum of 12 and maximum of 20 patients will be enrolled and treated for 52 weeks. • Starting dose: The dose of 0.625 mg/kg (corresponding to 12 mg/m^2) is chosen as a starting dose in Part 2 based on safety and preliminary efficacy data collected in Part 1 of the study. Indeed, following an USM treatment with branaplam continued but at a reduced dose of 6 mg/m^2 (0.3125 mg/kg) for all patients who had completed the initial 13 weeks of treatment. This dose was predicted to be efficacious based upon the preliminary clinical (CHOP INTEND) response of patients in Cohort 1. […] For that reason and also given the preliminary efficacy data collected in patients treated with branaplam at 12 mg/m^2 (0.625 mg/kg) it was decided to take this dose as a starting dose in Part 2. • Second dose: The dose of 2.5 mg/kg (corresponding to 48 mg/m^2) is selected as the second dose in Part 2 being 4-fold higher than the starting dose of 0.625 mg/kg (corresponding to 12 mg/m^2). The difference between 0.625 mg/kg and 2.5 mg/kg is considered to be sufficient to ensure appropriate separation in terms of systemic branaplam exposure and potentially also of efficacy endpoints.
# [2] = test system: juvenile dog; assay: 52-week chronic juvenile dog study; format: in vivo
# [3] = measured log P of branaplam; format: physicochemical
# [4] = phase solubility of branaplam in 2-hydroxypropyl-beta-cyclodextrin solutions; format: physicochemical; conditions: room temperature
smiles,measurement,setting,value
"CC1(C)CC(Oc2ccc(-c3ccc(-c4cn[nH]c4)cc3O)nn2)CC(C)(C)N1 [branaplam, 5-(1H-pyrazol-4-yl)-2-(6-((2,2,6,6-tetramethylpiperidin-4-yl)oxy)pyridazin-3-yl)phenol]",decrease of CHOP INTEND scores,[1]; 13 weeks of treatment,no significant decrease was observed in any patient
same,Deaths (patients),[1]; all from ventilatory failure due to underlying disease,five
same,AEs reported,"[1]; human, in vivo",455
same,hospitalizations associated with SAEs,"[1]; human, in vivo",59
same,hospitalizations for respiratory events or infections,"[1]; human, in vivo",39
same,Clinical status,[1]; in vivo,do not follow the normal disease course for Type 1 SMA patients
same,SAEs,[1]; in vivo,Seventy-nine
same,patients who reached a CHOP INTEND score of >36,[1]; in vivo,Eight
same,patients without feeding support after more than one year of treatment,[1]; in vivo,six
same,patients without feeding support after more than two years of treatment,[1]; in vivo,five
same,safety events following dose reduction,[1]; in vivo,"decrease of motor skills, generalized motor weakness and increased respiratory muscle weakness"
same,treated patients without feeding support at around 8 months of age,[1]; in vivo,Ten
same,dose limiting toxicity,"[1]; in vivo, po",No dose limiting toxicity was observed
same,Death or permanent ventilation endpoint,[1]; natural history median age 13.5 months,majority of treated patients have not met this endpoint
same,HINE Section 2: patients who achieved independent sitting,[1]; of the 11 patients evaluated,one
same,patients with progressive and substantial increase of CHOP INTEND scores,"[1]; po, 2184 h",7
same,patients without any ventilatory support with BiPAP,[1]; treated for more than two years,Four
same,nerve findings,[2],findings of nerve degeneration
same,logP,[3],2.6
same,branaplam dissolved using 17.5% HP-b-CD,[4],about 10 mg/mL
